According to patent US20260347372A1, “SMALL MOLECULE INHIBITORS OF KRAS G12D MUTANT” (MERCK SHARP & DOHME LLC, priority 2023, published 2026):
pIC50: −log10 of the molar value.

Columns and labels:
AsPC-1 cells = target: T1, AsPC-1 cells (Homo sapiens, UniProt P01116, G12D); experiment: Cellular phospho-ERK assay, AsPC-1 cells (KRAS G12D); assay type: cell-based; settings: 2 hours, read-out: AsPC1 pERK IC50
T1 construct: p-ERK/total ERK AlphaSureFire read-out
Procedure, shortened: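 Compound was titrated 10-point in 3-fold steps (top 30 μM) on KRAS G12D homozygous pancreatic lines PANC08.13 and AsPC-1 for 2 h at 37 °C. The p-ERK/total ERK ratio was measured by multiplex AlphaLISA SureFire and fitted with a 4-parameter logistic model to give IC50.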

KRAS G12D = KRAS G12D (Homo sapiens, UniProt P01116, G12D); experiment: SOS-catalyzed nucleotide exchange assay, KRAS G12D (Procedure A); assay type: biochemical; settings: guanine nucleotide exchange (GNE)
Procedure, shortened: (§1)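 60 min cpd preinc. w/ RAS–Bodipy-GDP–Tb-SA complex; + hSOS/GTP (3 mM final), RT. G12C 3 nM RAS/40 nM SOS; WT, G12D 1 nM/40 nM; 60 min rxn. G13D 1.25 nM, no SOS, 30 min rxn. HEPES pH 7.5, 10 mM MgCl2. Ratio 520/495, norm. to DMSO/max-inhibitor ctrls.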

KRAS G12V = KRAS G12V (Homo sapiens, UniProt P01116, G12V); experiment: SOS-catalyzed nucleotide exchange assay, KRAS G12V (Procedure A); assay type: biochemical; settings: GNE
Procedure, shortened: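 Biotinylated KRAS G12V was loaded with Bodipy-GDP alongside Terbium-streptavidin to form a TR-FRET complex, which was preincubated with compounds for 60 minutes in 384-well plates. Human SOS protein and unlabeled GTP were then added for 90 minutes, giving final concentrations of 1.25 nM KRAS-G12V, 160 nM SOS and 3 mM GTP. The 520/495 nm emission ratio was read on an Envision.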

KRAS WT = KRAS WT (Homo sapiens, UniProt P01116); experiment: SOS-catalyzed nucleotide exchange assay, KRAS WT (Procedure A); assay type: biochemical; settings: GNE
Procedure, shortened: as §1

Sequence of KRAS G12V (P01116 with tags, fused parts or gaps isoform P01116-2 G12V): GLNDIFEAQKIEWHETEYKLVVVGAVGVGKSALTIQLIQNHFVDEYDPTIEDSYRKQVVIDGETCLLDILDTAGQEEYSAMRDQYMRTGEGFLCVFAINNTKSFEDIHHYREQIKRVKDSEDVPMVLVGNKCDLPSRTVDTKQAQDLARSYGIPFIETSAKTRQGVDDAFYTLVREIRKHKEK
Sequence of KRAS G12D (P01116 with tags, fused parts or gaps isoform P01116-2 G12D): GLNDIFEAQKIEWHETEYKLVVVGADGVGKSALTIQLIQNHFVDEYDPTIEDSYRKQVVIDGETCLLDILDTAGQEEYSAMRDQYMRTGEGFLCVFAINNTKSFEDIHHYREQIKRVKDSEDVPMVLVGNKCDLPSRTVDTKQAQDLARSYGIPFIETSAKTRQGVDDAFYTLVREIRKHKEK
T1 sequence (P01116 1-188 isoform P01116-2 G12D): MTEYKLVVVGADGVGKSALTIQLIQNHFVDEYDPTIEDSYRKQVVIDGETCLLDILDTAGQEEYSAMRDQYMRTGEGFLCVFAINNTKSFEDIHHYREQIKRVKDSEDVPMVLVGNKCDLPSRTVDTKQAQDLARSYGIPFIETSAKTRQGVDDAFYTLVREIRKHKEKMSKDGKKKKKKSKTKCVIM
Sequence of KRAS WT (P01116 with tags, fused parts or gaps isoform P01116-2): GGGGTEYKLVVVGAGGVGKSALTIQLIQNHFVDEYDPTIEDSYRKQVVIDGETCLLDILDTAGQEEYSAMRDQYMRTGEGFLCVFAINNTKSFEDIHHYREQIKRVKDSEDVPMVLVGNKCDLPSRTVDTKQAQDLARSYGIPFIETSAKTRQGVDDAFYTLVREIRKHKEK

Row | Structure (SMILES) | pIC50 (AsPC-1 cells) | pIC50 (KRAS G12D) | pIC50 (KRAS G12V) | pIC50 (KRAS WT)
1 | C#Cc1c(F)ccc2cc3[nH]ncc3c(-c3nccc4c3sc3nc(OC[C@]5(CN6CCC7(CC6)CC(Cc6cn(C)nn6)C7)CC5(F)F)nc(N5C[C@H]6CC[C@@H](C5)N6)c34)c12 [Ex-106, 4-((1R,5S)-3,8-diazabicyclo[3.2.1]octan-3-yl)-2-(((R)-2,2-difluoro-1-((2-((1-methyl-1H-1,2,3-triazol-4-yl)methyl)-7-azaspiro[3.5]nonan-7-yl)methyl)cyclopropyl)methoxy)-8-(5-ethynyl-6-fluoro-1H-benzo[f]indazol-4-yl)pyrido[4′,3′:4,5]thie-no[2,3-d]pyrimidine] | 7.13 | 8.69 | 5.77 | 6.06
2 | C#Cc1c(F)ccc2cc3[nH]ncc3c(-c3nccc4c3sc3nc(OC[C@]5(CO)CC5(F)F)nc(N5C[C@H]6CC[C@@H](C5)N6)c34)c12 [Ex-109, ((1R)-1-(((4-((1R,5S)-3,8-diazabicyclo[3.2.1]octan-3-yl)-8-(5-ethynyl-6-fluoro-1H-benzo[f]indazol-4-yl)pyrido[4′,3′:4,5]thieno[2,3-d]pyrimidin-2-yl)oxy)methyl)-2,2-difluorocyclopropyl)methanol] | 6.00 | 7.59 | < 4.96 | < 4.96
3 | C#Cc1c(F)ccc2cc3[nH]ncc3c(-c3nccc4c3sc3nc(OCC5(C(F)(F)F)CCOCC5)nc(N5C[C@H]6CC[C@@H](C5)N6)c34)c12 [Ex-110, 4-((1R,5S)-3,8-diazabicyclo[3.2.1]octan-3-yl)-8-(5-ethynyl-6-fluoro-1H-benzo[f]indazol-4-yl)-2-((4-(trifluoromethyl)tetrahydro-2H-pyran-4-yl)methoxy)pyrido[4′,3′:4,5]thieno[2,3-d]pyrimidine] | 5.08 | 5.69 | < 4.95 | < 4.95
4 | C#Cc1c(F)ccc2cc3[nH]ncc3c(-c3nccc4c3sc3nc(OC[C@]5(CN6CCC(COC)CC6)CC5(F)F)nc(N5C[C@H]6CC[C@@H](C5)N6)c34)c12 [Ex-111, 4-((1R,5S)-3,8-diazabicyclo[3.2.1]octan-3-yl)-2-(((R)-2,2-difluoro-1-((4-(methoxymethyl)piperidin-1-yl)methyl)cyclopropyl)methoxy)-8-(5-ethynyl-6-fluoro-1H-benzo[f]indazol-4-yl)pyrido[4′,3′:4,5]thieno[2,3-d]pyrimidine] | 6.77 | 8.27 | 5.36 | 5.76
5 | Cc1cc2[nH]ncc2c(-c2nccc3c2sc2nc(OC[C@@]45CCCN4C[C@H](F)C5)nc(N4[C@@H]5CC[C@H]4CN(CC(C)O)C5)c23)c1C(F)(F)F (stereo partly drawn) [Ex-112] | 4.83 | 5.17 | < 4.96 | < 4.96
6 | Cc1cc2[nH]ncc2c(-c2nccc3c2sc2nc(OC[C@@]45CCCN4C[C@H](F)C5)nc(N4C[C@H]5CC[C@@H](C4)N5CC(C)O)c23)c1C(F)(F)F (stereo partly drawn) [Ex-113, 1-((1R,5S)-3-(2-(((2R,7aS)-2-fluorotetrahydro-1H-pyrrolizin-7a(5H)-yl)methoxy)-8-(6-methyl-5-(trifluoromethyl)-1H-indazol-4-yl)pyrido[4′,3′:4,5]thieno[2,3-d]pyrimidin-4-yl)-3,8-diazabicyclo[3.2.1]octan-8-yl)propan-2-ol] | 5.62 | 6.31 | 5.73 | 5.96
7 | C#Cc1c(F)ccc2cc3[nH]ncc3c(-c3nccc4c3sc3nc(OC[C@@]56CCCN5C/C(=C\F)C6)nc(N5C[C@@H]6C[C@H](O)[C@H](C5)N6)c34)c12 [Ex-114, (1S,5S,6S)-3-(8-(5-ethynyl-6-fluoro-1H-benzo[f]indazol-4-yl)-2-(((S,Z)-2-(fluoromethylene)tetrahydro-1H-pyrrolizin-7a(5H)-yl)methoxy)pyrido[4′,3′:4,5]thieno[2,3-d]pyrimidin-4-yl)-3,8-diazabicyclo[3.2.1]octan-6-ol] | 7.01 | 8.74 | 7.42 | 7.44
8 | FC(F)(F)C1(COc2nc(N3C[C@H]4CC[C@@H](C3)N4)c3c(n2)sc2c(-c4c(C5CC5)c(Cl)cc5[nH]ncc45)nccc23)CCOCC1 [Ex-118, 4-((1R,5S)-3,8-diazabicyclo[3.2.1]octan-3-yl)-8-(6-chloro-5-cyclopropyl-1H-indazol-4-yl)-2-((4-(trifluoromethyl)tetrahydro-2H-pyran-4-yl)methoxy)pyrido[4′,3′:4,5]thieno[2,3-d]pyrimidine] | 5.31 | 5.49 | < 4.95 | 5.20

Stronger by pIC50 (AsPC-1 cells), values ahead:

Row | pIC50 (AsPC-1 cells) | pIC50 (KRAS G12D) | pIC50 (KRAS G12V) | pIC50 (KRAS WT) | Structure (SMILES)
9 | 7.17 | 8.80 | 6.32 | 6.55 | C#Cc1c(F)ccc2cc3[nH]ncc3c(-c3nccc4c3sc3nc(OC[C@]5(CN6CCC(CCc7cn(C)nn7)CC6)CC5(F)F)nc(N5C[C@H]6CC[C@@H](C5)N6)c34)c12 [Ex-105, 4-((1R,5S)-3,8-diazabicyclo[3.2.1]octan-3-yl)-2-(((R)-2,2-difluoro-1-((4-(2-(1-methyl-1H-1,2,3-triazol-4-yl)ethyl)piperidin-1-yl)methyl)cyclopropyl)methoxy)-8-(5-ethynyl-6-fluoro-1H-benzo[f]indazol-4-yl)pyrido[4′,3′:4,5]thie-no[2,3-d]pyrimidine]
10 | 7.29 | 8.49 | 5.99 | 6.10 | C#Cc1c(F)ccc2cc3[nH]ncc3c(-c3nccc4c3sc3nc(OC[C@]5(CN6CCC6)CC5(F)F)nc(N5C[C@H]6CC[C@@H](C5)N6)c34)c12 [Ex-107, 2-(((R)-1-(azetidin-1-ylmethyl)-2,2-difluorocyclopropyl)meth-oxy)-4-((1R,5S)-3,8-diazabicyclo[3.2.1]octan-3-yl)-8-(5-ethynyl-6-fluoro-1H-benzo[f]indazol-4-yl)pyrido[4′,3′:4,5]thie-no[2,3-d]pyrimidine]
11 | 7.31 | 8.71 | 6.20 | 6.40 | C#Cc1c(F)ccc2cc3[nH]ncc3c(-c3nccc4c3sc3nc(OC[C@]5(CN6CC7(CCOC7)C6)CC5(F)F)nc(N5C[C@H]6CC[C@@H](C5)N6)c34)c12 [Ex-104, 2-(((1R)-1-(((4-((1R,5S)-3,8-diazabicyclo[3.2.1]octan-3-yl)-8-(5-ethynyl-6-fluoro-1H-benzo[f]indazol-4-yl)pyrido[4′,3′:4,5]thie-no[2,3-d]pyrimidin-2-yl)oxy)methyl)-2,2-difluorocyclopropyl)meth-yl)-6-oxa-2-azaspiro[3.4]octane]
12 | 7.79 | 8.79 | 6.43 | 6.67 | C#Cc1c(F)ccc2cc3[nH]ncc3c(-c3nccc4c3sc3nc(OC[C@@]56CCCN5C[C@@H](F)C6)nc(N5CC6CCC(C5)N6)c34)c12 [Ex-108, 4-(3,8-diazabicyclo[3.2.1]octan-3-yl)-8-(5-ethynyl-6-fluoro-1H-benzo[f]indazol-4-yl)-2-(((2S,7aS)-2-fluorotetrahydro-1H-pyrrolizin-7a(5H)-yl)methoxy)pyrido[4′, 3′:4,5]thieno[2,3-d]pyrimidine]
